# Results reported in patent US12643871B2, “Aryl formamide compound containing chiral sulfur oxide or salt thereof, preparation method, herbicidal composition and use thereof” (Qingdao Kingagroot Chemical Compound Co., Ltd., priority 2019, dated 2026).
# Tests used:
# Assay in all cases: Weeding effect in post-emergence stage
# Assay type in all cases: in vivo
# Details in all cases: 250 g/ha; 2 leaf stage; 15 days after application; fresh weight control rate
# Abutilon theophrasti = system: Abutilon theophrasti
# Procedure, shortened: (§1)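 Activity graded 0 (<5%) to 5 (>85%) from fresh-weight control rate, averaged over three repeats, 15 days after a spray-tower application. Plants at 2-leaf stage (2 weeks post-sowing) received 15–500 g/ha of compound formulated in acetone, Tween 80 and methyl oleate synergist (1.5 L/ha).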
# Amaranthus retroflexus = system: Amaranthus retroflexus
# Procedure, shortened: as §1
# Setaria viridis = system: Setaria viridis
# Procedure, shortened: as §1
# Echinochloa crusgali = system: Echinochloa crusgali
# Procedure, shortened: as §1
# Digitaria sanguinalis = system: Digitaria sanguinalis
# Procedure, shortened: as §1
SMILES,"weeding effect in post-emergence stage, activity level (growth control rate), Abutilon theophrasti (Abutilon theophrasti)","weeding effect in post-emergence stage, activity level (growth control rate), Amaranthus retroflexus (Amaranthus retroflexus)","weeding effect in post-emergence stage, activity level (growth control rate), Setaria viridis (Setaria viridis)","weeding effect in post-emergence stage, activity level (growth control rate), Echinochloa crusgali (Echinochloa crusgali)","weeding effect in post-emergence stage, activity level (growth control rate), Digitaria sanguinalis (Digitaria sanguinalis)"
CCC(=O)[S+]([O-])c1c(C(F)(F)F)ccc(C(=O)Nc2nnc(C)o2)c1F (centres unmarked) [Compound 167],5 (Level 5: growth control rate is above 85%),5 (Level 5: growth control rate is above 85%),5 (Level 5: growth control rate is above 85%),5 (Level 5: growth control rate is above 85%),5 (Level 5: growth control rate is above 85%)
COc1c(C(=O)Nc2nnc(C)o2)ccc(C(F)(F)F)c1[S@@+]([O-])C(F)(F)C(F)(F)C(F)(F)F [Compound 328],5 (Level 5: growth control rate is above 85%),5 (Level 5: growth control rate is above 85%),5 (Level 5: growth control rate is above 85%),5 (Level 5: growth control rate is above 85%),5 (Level 5: growth control rate is above 85%)
Cc1nnc(NC(=O)c2ccc(C(F)(F)F)c([S@+]([O-])C(F)(C(F)(F)F)C(F)(F)F)c2F)o1 [Compound 32],5 (Level 5: growth control rate is above 85%),5 (Level 5: growth control rate is above 85%),5 (Level 5: growth control rate is above 85%),5 (Level 5: growth control rate is above 85%),5 (Level 5: growth control rate is above 85%)
O=C(Nc1nnco1)c1ccc(C(F)(F)F)c([S@+]([O-])CCC(F)(F)F)c1F [Compound 581],5 (Level 5: growth control rate is above 85%),5 (Level 5: growth control rate is above 85%),5 (Level 5: growth control rate is above 85%),5 (Level 5: growth control rate is above 85%),5 (Level 5: growth control rate is above 85%)
CSc1c(C(=O)Nc2nnc(C)o2)ccc(C(F)(F)F)c1[S@+]([O-])CC(F)F [Compound 558],5 (Level 5: growth control rate is above 85%),5 (Level 5: growth control rate is above 85%),5 (Level 5: growth control rate is above 85%),5 (Level 5: growth control rate is above 85%),5 (Level 5: growth control rate is above 85%)
COC(C)C[S@@+]([O-])c1c(C(F)(F)F)ccc(C(=O)Nc2nnc(C)o2)c1F (some centres unmarked) [Compound 74],5 (Level 5: growth control rate is above 85%),5 (Level 5: growth control rate is above 85%),5 (Level 5: growth control rate is above 85%),5 (Level 5: growth control rate is above 85%),5 (Level 5: growth control rate is above 85%)
CSc1c(C(=O)Nc2nnc(C)o2)ccc(C(F)(F)F)c1[S@+]([O-])CC(F)(F)F [Compound 556],5 (Level 5: growth control rate is above 85%),5 (Level 5: growth control rate is above 85%),5 (Level 5: growth control rate is above 85%),5 (Level 5: growth control rate is above 85%),5 (Level 5: growth control rate is above 85%)
CSc1c(C(=O)Nc2nnc(C)o2)ccc(C(F)(F)F)c1[S@+]([O-])CC(C)C [Compound 551],5 (Level 5: growth control rate is above 85%),5 (Level 5: growth control rate is above 85%),5 (Level 5: growth control rate is above 85%),5 (Level 5: growth control rate is above 85%),5 (Level 5: growth control rate is above 85%)
Cc1nnc(NC(=O)c2ccc(C(F)(F)F)c([S@+]([O-])CCCC#N)c2F)o1 [Compound 53],5 (Level 5: growth control rate is above 85%),5 (Level 5: growth control rate is above 85%),5 (Level 5: growth control rate is above 85%),5 (Level 5: growth control rate is above 85%),5 (Level 5: growth control rate is above 85%)
Cc1nnc(NC(=O)c2ccc(C(F)(F)F)c([S@+]([O-])CCCN)c2F)o1 [Compound 57],5 (Level 5: growth control rate is above 85%),5 (Level 5: growth control rate is above 85%),5 (Level 5: growth control rate is above 85%),5 (Level 5: growth control rate is above 85%),5 (Level 5: growth control rate is above 85%)
CC[S@@+]([O-])c1c(C(F)(F)F)ccc(C(=O)Nc2nnco2)c1OC [Compound 423],5 (Level 5: growth control rate is above 85%),5 (Level 5: growth control rate is above 85%),5 (Level 5: growth control rate is above 85%),5 (Level 5: growth control rate is above 85%),5 (Level 5: growth control rate is above 85%)
CCC(C)[S@@+]([O-])c1c(C(F)(F)F)ccc(C(=O)Nc2nnc(C)o2)c1F (some centres unmarked) [Compound 5],5 (Level 5: growth control rate is above 85%),5 (Level 5: growth control rate is above 85%),5 (Level 5: growth control rate is above 85%),5 (Level 5: growth control rate is above 85%),5 (Level 5: growth control rate is above 85%)
Cc1nnc(NC(=O)c2ccc(C(F)(F)F)c([S@+]([O-])CCOC(F)(F)F)c2F)o1 [Compound 165],5 (Level 5: growth control rate is above 85%),5 (Level 5: growth control rate is above 85%),5 (Level 5: growth control rate is above 85%),5 (Level 5: growth control rate is above 85%),5 (Level 5: growth control rate is above 85%)
Cc1nnc(NC(=O)c2ccc(C(F)(F)F)c([S@+]([O-])C(C)(C)C)c2F)o1 [Compound 7],5 (Level 5: growth control rate is above 85%),5 (Level 5: growth control rate is above 85%),4 (Level 4: growth control rate is greater than or equal to 60% and less than 85%),5 (Level 5: growth control rate is above 85%),4 (Level 4: growth control rate is greater than or equal to 60% and less than 85%)
COc1c(C(=O)Nc2nnc(C)o2)ccc(C(F)(F)F)c1[S@+]([O-])CCN(C)C [Compound 340],5 (Level 5: growth control rate is above 85%),5 (Level 5: growth control rate is above 85%),5 (Level 5: growth control rate is above 85%),5 (Level 5: growth control rate is above 85%),5 (Level 5: growth control rate is above 85%)
COc1c(C(=O)Nc2nnc(C)o2)ccc(C(F)(F)F)c1[S@+]([O-])CCO [Compound 334],5 (Level 5: growth control rate is above 85%),5 (Level 5: growth control rate is above 85%),5 (Level 5: growth control rate is above 85%),5 (Level 5: growth control rate is above 85%),5 (Level 5: growth control rate is above 85%)
